Consider 1 molecule from ChEMBL document CHEMBL3399954, “Design and synthesis of new tricyclic indoles as potent modulators of the S1P1 receptor” (Bioorg Med Chem Lett, 2015).

Each structure is given as a SMILES string.

Data set [1] in a line: AUClast in Sprague-Dawley rat at 1 mg/kg, iv and 1 mg/kg, po. It is filed as ADME, organism-based. The conditions noted are these: plasma.
Data set [2] can be described thus: Clearance in Sprague-Dawley rat at 1 mg/kg, iv and 1 mg/kg, po. In kind it is ADME, organism-based. Particulars: in vivo.
Data set [3] is described as follows: Half life in Sprague-Dawley rat at 1 mg/kg, iv. It is filed as ADME, organism-based. Details: dose 1 mg/kg, route intravenous. The conditions noted are these: in vivo.
The nature of data set [4]: Volume of distribution at steady state in Sprague-Dawley rat at 1 mg/kg, iv and 1 mg/kg, po. In kind it is ADME, organism-based. The conditions noted are these: in vivo, read-out: Vdss.
Data set [5] can be described thus: Oral bioavailability in Sprague-Dawley rat at 1 mg/kg. In kind it is ADME, organism-based. The conditions noted are these: in vivo.
Data set [6] can be described thus: Half life in rat liver microsomes. It is filed as ADME. Background: Liver microsomes are vesicles of endoplasmic reticulum, rich in cytochrome P450 enzymes.
Data set [7] is described as follows: Half life in human liver microsomes. In kind it is ADME.
Data set [8] can be described thus: Half life in mouse liver microsomes. In kind it is ADME.

In turn, `O=C(O)CC1NCCc2c1[nH]c1ccc(OCc3ccc(C4CCCC4)c(C(F)(F)F)c3)cc21` (single isomer, unassigned) displayed an AUC(0-t) in data set [1] of 1320 ng·h/mL. Also, the clearance in data set [2] is 10.7 mL/min/kg. The half-life was 9.49 h in data set [3], more than 1 h in data set [6], more than 1 h in data set [7] and more than 1 h in data set [8]. For the same molecule, in data set [4], the Vd amounted to 6.71 L/kg. The same molecule showed a bioavailability in data set [5] of less than 2%.

Broadly, the AUC(0-t) is exposure summed from dosing to a finite time, without extrapolation to infinity. A low value points to less exposure. The term half-life denotes the time needed for the level to fall by half in the phase considered. The term bioavailability denotes dose-corrected exposure relative to a reference, in per cent. Higher therefore signals good availability.
